The subject of data set [1] is dd strain mice. The following applies: mouse, in vivo, iv.
The nature of data set [2]: in vivo. The following applies: mouse, iv.

Molecules are shown by their SMILES.

For orientation: LD50 means the dose at which mortality reaches 50%. Consider `CCCCCCCCCCCCCCCC(=O)OCC(=O)[C@@]1(O)[C@H](C)C[C@H]2[C@@H]3CCC4=CC(=O)C=C[C@]4(C)[C@@]3(F)[C@@H](O)C[C@@]21C` [dexamethasone palmitate], for which the figures for the LD50 in data set [1] and in data set [2] were 420 mg/kg and 580 mg/kg, respectively.
As to `C[C@@H]1C[C@H]2[C@@H]3CCC4=CC(=O)C=C[C@]4(C)[C@@]3(F)[C@@H](O)C[C@]2(C)[C@@]1(O)C(=O)COP(=O)(O)O` [dexamethasone phosphate], the LD50 was 115 mg/kg in data set [1] and 140 mg/kg in data set [2].

The values are drawn from patent US4340594A, “Fat emulsion containing steroid” (The Green Cross Corporation, priority 1980, dated 1982).
